According to patent US20260144769A1, “4-PHENYLBUTYRATE RESTORED GABA UPTAKE AND REDUCED SEIZURES IN SLC6A1 VARIANT-MEDIATED DISORDERS” (Vanderbilt University, priority 2022, published 2026):

Columns and labels:
Test in all cases: 3H GABA uptake, corrected iPSC astrocytes transfected with GAT-1^YFP cDNA
Assay type in all cases: cell-based
[1] = molecular target: T1, GAT-1 D410E (Rattus norvegicus, UniProt P23978, D410E); conditions: 2 mM PBA, 24 hrs
T1 construct: The coding region of rGAT-1 was inserted into pEYFP-C1 (Clontech, Palo Alto, CA); expressed in transfected cells; host or cells: HEK293T cells (A7); astrocytes from corrected human iPSCs (A27)
Method: (§1) Live images of human neural progenitor cells (NPCs), astrocytes and GABAergic inhibitory neurons differentiated from the human induced pluripotent stem cells (iPSCs) on the day of experiment. […] The DMSO treated corrected or patient cells was taken as 1. […] GABA flux was measured after 30 min transport at room temperature. The influx of GABA, expressed in pmol/μg protein/min, was averaged from duplicates for each condition and for each transfection. The average counting was DMSO treated condition taken as 1. In FIG. 5B, FIG. 5D and FIG. 5F, 966 stands for CI-966 (50 μM) and 711 stands for NNC-711 (35 μM) that was applied 30 min to the astrocytes transfected with the wildtype GAT-1^YFP before preincubation and removed during preincubation. In FIGS. 5B and D, ***p<0.001 vs. corrected DMSO treated. § § <0.01, § § § p<0.001 vs. patient DMSO treated. […] In FIGS. 5B-E, n=4-8 batches of cells. In FIG. 5F, n=4-5 different transfections). Unpaired t test was used for FIG. 5C and FIG. 5E. One-way analysis of variance followed by a Dunnett post hoc multiple comparison test was used in FIG. 5B, FIG. 5D and FIG. 5F. Values were expressed as mean±S.E.M.).
(§2) The plasmid cDNA encoding enhanced yellow fluorescent protein (EYFP)-tagged rat GAT-1 has been previously described. The coding region of rGAT-1 was inserted into pEYFP-C1 (Clontech, Palo Alto, CA). QuikChange Site-directed Mutagenesis kit was utilized to introduce the GAT-1 variants into a wildtype GAT-1 plasmid. The product was then amplified via polymerase chain reaction, transformed using DH5a competent cells, and plated. A clone was chosen and grown overnight. All the GAT-1 variants were confirmed by DNA sequencing. Both the wildtype and the variant cDNAs were prepared with Qiagen Maxiprep kit.
(§3) Astrocytes were differentiated starting from day 5 of NPC passage 1 with the astrocyte culture medium from Sciencell (catalog 1801) following the protocol as previously described. The cell culture medium was refreshed every other day and the cells were passaged at ˜70% confluency. About 1.5×10^5 cells were seeded in each 35 mm dish or each well in 6-well plate when passaging. The differentiation was continuous until the day 30 and all the astrocytes used in experiments in this study were at day 30 after differentiation.
(§4) Briefly, cells were cultured in […] dishes for 3 days before the GABA uptake experiment in DMEM with 10% fetal bovine serum and 1% penicillin/streptomycin. The cells were then transfected with equal amounts of the wildtype or the mutant GAT-1 cDNAs (1 μg) for each condition at 24 hrs or 48 hrs after plating. GABA uptake assay was carried out 48 hrs after transfection. The cells were incubated with preincubation solution for 15 min and then incubated with preincubation solution containing 1 μci/mL 3H GABA and 10 μM unlabeled GABA for 30 min at room temperature. After washing, the cells were lysed with 0.25 N NaOH for 1 hr. Glacial acetic acid was added, and lysates were then determined on a liquid scintillator with QuantaSmart. The flux of GABA (pmol/μg/min) was averaged with at least triplets for each condition at each transfection. The average counting was taken as n=1. The untransfected condition was taken as a baseline that was subtracted from both the wildtype and the mutant conditions. The pmol/μg/min in the mutant was then normalized to the wildtype from each experiment, which was arbitrarily taken as 100%. The protocols for GABA reuptake assay in cultured mouse astrocytes, neuron or iPSC derived cells were modified from the GABA uptake protocol on HEK 293T cells. GAT-1 inhibitors CL-966 and NNC-711 were applied each time to make sure the radioactive counts were specific.
(§5) The working solution was stored at 4° C.
(§6) Wildtype or the mutant GAT-1^YFP were transfected (1 μg cDNAs per 35 mm^2 dishes) in the astrocytes derived from the corrected iPSCs for 48 hrs. […]

[2] = molecular target: T2, wildtype GAT-1 (Rattus norvegicus, UniProt P23978); conditions: corrected astrocytes transfected with wt; 2 mM PBA, 24 hrs
T2 construct: The coding region of rGAT-1 was inserted into pEYFP-C1 (Clontech, Palo Alto, CA); expressed in transfected cells; host or cells: HEK293T cells (A1); astrocytes from corrected human iPSCs (A21)
Method: as §1, §2, §3, §4, §5, §6

[3] = molecular target: T3, GAT-1 A288V (Rattus norvegicus, UniProt P23978, A288V); conditions: 2 mM PBA, 24 hrs
T3 construct: The coding region of rGAT-1 was inserted into pEYFP-C1 (Clontech, Palo Alto, CA); expressed in transfected cells; host or cells: HEK293T cells (A4); astrocytes from corrected human iPSCs (A24)
Method: as §1, §2, §3, §4, §5, §6

[4] = molecular target: T4, GAT-1(W495X) (Rattus norvegicus, UniProt P23978); conditions: 2 mM PBA, 24 hrs
T4 construct: The coding region of rGAT-1 was inserted into pEYFP-C1 (Clontech, Palo Alto, CA); expressed in transfected cells; host or cells: human astrocytes differentiated from CRISPR-corrected patient iPSCs
Method: as §1, §2, §3, §4, §5, §6

O=C(O)CCCc1ccccc1 [PBA, 4-phenylbutyric acid]
GABA uptake normalized to its DMSO treated [1]: 1.21±0.022
GABA uptake normalized to its DMSO treated [2]: 1.188±0.075
GABA uptake normalized to its DMSO treated [3]: 1.204±0.031
GABA uptake normalized to its DMSO treated [4]: 1.45±0.04
